The subject of one experiment is Caco-2 cells. The experiment in a line: CCK8 assay, Caco-2 colon cancer cells. The experiment is classed as cell-based. Conditions: Homo sapiens, 10 μM, 48 h, read-out: cell viability rate. The protocol:
(§1) C42B, PC3, Caco-2, HepG2, MCF7, HL-60, 8505 C, OVCAR-3, and A549 were cultured to screen the broad-spectrum antiproliferative activity of compound 14. For above cell lines, three thousand cells per well were seeded in the 96-well plate and treated by compound 14 for 48 or 72 h at different concentrations (0, 5, 10, and 20 μM). In addition, HepG2, HEP3B, HUH6, and HUH7 were cultured to screen its antiproliferative activity against liver cancer cell lines. For these liver cancer cell lines, two thousand cells per well were seeded in the 96-well plate and treated by compound 14 for 48 h at different concentrations (0, 0.625, 1.25, 2.5, and 5 μM). Then, 10 μl of CCK8 was added into each well and cells were incubated in a humidified atmosphere of 5% CO2 at 37 °C for 4 h. The 96-well plate was measured with a microplate reader (Bio-Tek, San Diego, CA) at a wavelength of 450 nm to calculate IC50 values.
(In general: Tetrazolium dyes change colour on reduction, which living cells bring about.)

Experiment [1] relates to HepG2 cells. The experiment is described as follows: CCK8 assay, HepG2 liver cancer cells. The experiment is classed as cell-based. Conditions: Homo sapiens. On the procedure:
as §1

The subject of the next experiment is MCF7 cells. The experiment is described as follows: CCK8 assay, MCF7 breast cancer cells. The experiment is classed as cell-based. As to conditions: Homo sapiens, 10 μM, 48 h, read-out: cell viability rate. On the procedure:
as §1

Another experiment relates to HL-60 cells. The experiment in a line: CCK8 assay, HL-60 leukaemia cells. The experiment is classed as cell-based. As to conditions: Homo sapiens, 10 μM, 48 h, read-out: cell viability rate. The protocol:
as §1

In a further experiment the test system is OVCAR-3 cells. The experiment is described as follows: CCK8 assay, OVCAR-3 ovarian cancer cells. The experiment is classed as cell-based. Conditions: Homo sapiens, 10 μM, 48 h, read-out: cell viability rate. The protocol: as §1
The test system of a further experiment is A549 cells. The experiment is described as follows: CCK8 assay, A549 lung cancer cells. Conditions: Homo sapiens, 10 μM, 48 h, read-out: cell viability rate. The experiment is classed as cell-based. On the procedure: as §1
The test system of the next experiment is HUH7 cells. The experiment in a line: CCK8 assay, HUH7 liver cancer cells. The experiment is classed as cell-based. As to conditions: Homo sapiens, Huh-7, CCK8, 48 h, 0-5 μM, read-out: IC50, antiproliferative activity. The protocol: as §1
Another experiment deals with T1, MAO-A (Homo sapiens, UniProt P21397).
T1 construct: purchased Servicebio (Wuhan, China)
T1 sequence (P21397 whole entry, species assumed): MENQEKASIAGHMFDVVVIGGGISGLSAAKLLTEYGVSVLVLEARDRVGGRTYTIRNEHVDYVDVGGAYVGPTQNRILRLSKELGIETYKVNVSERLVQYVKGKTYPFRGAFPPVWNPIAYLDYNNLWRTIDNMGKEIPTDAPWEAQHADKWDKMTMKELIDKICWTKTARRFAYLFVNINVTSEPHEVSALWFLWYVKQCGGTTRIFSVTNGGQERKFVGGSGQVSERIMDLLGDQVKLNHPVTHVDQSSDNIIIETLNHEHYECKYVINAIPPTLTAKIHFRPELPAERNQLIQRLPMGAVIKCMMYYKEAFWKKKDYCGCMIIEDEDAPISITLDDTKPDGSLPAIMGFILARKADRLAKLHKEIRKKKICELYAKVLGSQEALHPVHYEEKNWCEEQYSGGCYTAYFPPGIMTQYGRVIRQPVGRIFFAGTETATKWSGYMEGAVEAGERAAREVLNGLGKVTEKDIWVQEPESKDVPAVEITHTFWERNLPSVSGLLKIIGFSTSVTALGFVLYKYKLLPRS
The experiment in a line: Inhibitory activity against MAO-A (kynuramine). As to conditions: tested at 250, 500, and 1000 nM. The experiment is classed as biochemical. The protocol:
In order to analyse the enzymatic selectivity of compound 14, MAO-A/B was purchased from Servicebio (Wuhan, China). MAO-A was dissolved in phosphate buffer (0.1 M, pH = 7.4) to get MAO-A enzymatic buffer with a concentration of 0.006 mg/ml. MAO-B was also dissolved in phosphate buffer (0.1 M, pH = 7.3) to get MAO-B enzymatic buffer with a concentration of 0.015 mg/mL. Kynuramine dihydrochloride (Servicebio, Wuhan, China) was used to get the assay buffer with a concentration of 40 μM for MAO-A and 20 μM for MAO-B. An aliquot of 97 μl of assay buffer and 3 μl of compound 14 at different concentrations (250, 500, and 1000 nM) were added into each well on the 96-well black plate. The plate was incubated at 37 °C for 20 min, and 80 μl of 2 N sodium hydroxide was added into each well to stop the reaction. The fluorescence of each well was measured using a microplate reader (Agilent Technologies Inc., CA) with an excitation at 310 nm and an emission at 380 nm.

The target in experiment [2] is T2, LSD1 (Homo sapiens, UniProt O60341). The experiment is described as follows: Dialysis assay to evaluate the reversibility. The experiment is classed as biochemical. As to conditions: dialysis against HEPES buffer, GSK-LSD1 as irreversible reference. On the procedure:
A mixture of compound 14 and the recombinant LSD1 was incubated for 60 min at 37 °C. Then, the system was dialysed against 50 mmol/l HEPES buffer at 37 °C for 12 h. Finally, the HEPES buffer was replaced and the system was incubated for 12 h at 37 °C. In the dialysis experiment, an irreversible inhibitor GSK-LSD1 was purchased as the reference drug (Innochem, Beijing, China).

Experiment [3] concerns HepG2 cells. The experiment in a line: Xenograft study, HepG2 cells in nude mice. The experiment is classed as in vivo, BALB/c nude mice. As to conditions: 60 mg/kg by gavage every day for 21 days. On the procedure:
Tumorigenesis in nude mice could stimulate the growth process of human tumours in the body, and could be used to develop and evaluate the effectiveness and safety of anti-cancer candidates. Therefore, xenograft studies in nude mice were performed to evaluate anticancer effects of compound 14. Animals were treated according to the protocols established by the ethics committee of The Fourth Clinical College of Xinxiang Medical University. The in vivo experiments were carried out in accordance with the approved guidelines and approved by the ethics committee of The Fourth Clinical College of Xinxiang Medical University. The number of ethics approvals is XMU-2024–01-03. All authors have adhered to the ARRIVE guidelines (https://arriveguidelines.org/). BALB/c nude mice were purchased from Beijing Huafukang Biotechnology Co., LTD (Beijing, China), and fifteen mice were used in this study (aged 6–7 weeks and weighing 20–30 g). Before the animal experiments, all nude mice were given a week to adjust to the clean, hygienic and specific-pathogen-free environment. All nude mice were taken care of instainless steel cages with a constant temperature of 60% humidity, 25 °C and a 12/12 light/dark cycle. Nude mice were fed with refreshing water and nourishing food everyday.
Then, nude mice were anaesthetised with 2% isoflurane and 0.3 l/min of oxygen by the small animal anaesthesia machine (Beijing Yi Zejia Technology Co., LTD, Beijing, China). 3 × 10^5 human liver cancer HepG2 cells were subcutaneously injected in the right armpit of mice. Until the volume of tumours reached 60–100 mm^3, all mice were randomly divided into three groups and each group had five nude mice. An amount of 60 mg/kg of compound 14, 10 mg/kg of seclidemstat and water as the control group were given by gavage every day for 21 days. Weight of mice and tumour volume were measured every 3 d. All nude mice in this xenograft studies were performed euthanizing procedures using a carbon dioxide euthanasia chamber (Shanghai Yuyan Instruments Co., Ltd, Shanghai, China). The flow rate of carbon dioxide was adjusted at 20% of the volume of the euthanasia chamber per minute. Once nude mice were unconscious, the flow rate was increased to 100% of the euthanasia chamber volume per minute. Death was confirmed by immobility, non-breathing and pupil enlargement. Tumours form BALB/c nude mice were isolated and weighed.

The target in experiment [4] is T2, LSD1. The experiment is described as follows: LSD1 screening assay kit (enzymatic activity). The experiment is classed as biochemical. The arrangement: purchased Cayman Chemical (Ann Arbor, MI). Conditions: fluorescence, read-out: IC50 against LSD1. The protocol: After the incubation for 30 min at 37 °C, a mixture of horseradish peroxidase solution (20 μl) and fluorometric substrate solution (10 μl) was added to each well. Then, the 96-well plate was incubated for 15 min at 37 °C. Finally, the fluorescence of each well in the 96-well plate was measured at an emission wavelength of 590 nm and an excitation wavelength of 530 nm by a fluorimeter (Agilent Technologies Inc., Palo Alto, CA). Seclidemstat, a famous LSD1 inhibitor, was used as the control drug in this assay.

For `COc1ccc(CN(C(=O)CCN2C(=O)CCCC2=O)c2cc(OC)c(OC)c(OC)c2)cc1` [Compound 14, 3-(2,6-dioxopiperidin-1-yl)-N-(4-methoxybenzyl)-N-(3,4,5-trimethoxyphenyl)propanamide], the viability at 10 µM was 72.3% in the experiment on Caco-2 cells; 14.2% in the experiment with HepG2 cells [1] (10 μM, 48 h, read-out: cell viability rate); 49.7% in the experiment with MCF7 cells; 35.7% with HL-60 cells; 80.7% in the experiment with OVCAR-3 cells; 41.1% with A549 cells. The 50% inhibitory concentration (IC50) in the experiment on HepG2 cells [1] (CCK8, 48 h, 0-5 μM, read-out: IC50, antiproliferative activity) is 930 nM; with HUH7 cells, 4370 nM; against MAO-A, above 1000 nM; at LSD1 [4], 180 nM. Moreover, the “reversibility of LSD1 inhibition” value on LSD1 [2] was “inhibits LSD1 in a reversible manner”. In addition, the “growth of subcutaneous tumours” value with HepG2 cells [3] (nude mice bearing HepG2 cells) is “inhibited the growth of subcutaneous tumours”. Also, the “tumour growth inhibition rate” value in the experiment with HepG2 cells [3] (tumour weight, nude mice bearing HepG2 cells) stood at 50.3%. Further, in the experiment on HepG2 cells [3] (vs control group), the tumour volume result is recorded as “significantly lower than that in control group”. In addition, the tumour weight result in the experiment with HepG2 cells [3] (vs control group) is recorded as “lower than that of control group”.

One may read the viability as the share of living cells, or the viability signal relative to a control. What is called IC50 is the midpoint of a concentration-inhibition curve.
